Reference: patent US20230312587A1, “PTERIDINONE COMPOUNDS AND USES THEREOF” (Vertex Pharmaceutical Incorporated, priority 2018, published 2023)

tested on: β-catenin-TCF-mediated reporter transcription activity in Colo 205 cells; assay: Colo 205 reporter assay (TCF/LEF luciferase); assay type: cell-based; settings: Homo sapiens, COLO 205, 5 h, Colo 205 TCF/LEF luciferase reporter, five hours after addition of compound; read-out: TCF reporter Colo205 IC50
How it was run: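 Luciferase signal from a TCF/LEF-driven reporter, stably integrated in Colo 205 colon cancer cells, was measured 5 h after compound addition.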

IC50	Compound
1000 to 5000 nM	Cc1nc(N[C@H]2C[C@H](Nc3ccnc(C(F)(F)F)n3)C2)nc2c1NC(=O)[C@H](C(C)C)N2C [Compound 540, (S)-7-isopropyl-4,8-dimethyl-2-((trans-3-((2-(trifluoromethyl)pyrimidin-4-yl)amino)cyclobutyl)amino)-7,8-dihydropteridin-6(5H)-one]
300 to 1000 nM	Cc1nc(N[C@H]2C[C@@H](Cn3cncc3C(F)(F)F)C2)nc2c1NC(=O)[C@H](C(C)C)N2C [Compound 679, (S)-7-isopropyl-4,8-dimethyl-2-((cis-3-((5-(trifluoromethyl)-1H-imidazol-1-yl)methyl)cyclobutyl)amino)-7,8-dihydropteridin-6(5H)-one]
300 to 1000 nM	Cc1nc(N[C@H]2CC[C@H](Oc3cc(F)c(F)c(F)c3)C2)nc2c1NC(=O)[C@H](C)N2C (mixture of isomers) [Compound 260, (7S)-4,7,8-trimethyl-2-((trans-3-(3,4,5-trifluorophenoxy)cyclopentyl)amino)-7,8-dihydropteridin-6(5H)-one]
< 300 nM	Cc1nc(NCc2cnn(Cc3ccc(F)cn3)c2)nc2c1NC(=O)[C@H](C(C)C)N2C [Compound 454, (S)-2-(((1-((5-fluoropyridin-2-yl)methyl)-1H-pyrazol-4-yl)methyl)amino)-7-isopropyl-4,8-dimethyl-7,8-dihydropteridin-6(5H)-one]
300 to 1000 nM	C[C@H]1C(=O)Nc2cnc(N[C@H]3C[C@H](OCc4cc(F)c(F)c(F)c4)C3)nc2N1C [Compound 256, (7S)-7,8-dimethyl-2-((trans-3-((3,4,5-trifluorobenzyl)oxy)cyclobutyl)amino)-7,8-dihydropteridin-6(5H)-one]
300 to 1000 nM	C[C@H]1C(=O)Nc2cnc(NCc3cnn(CCCc4ccc(F)cc4)c3)nc2N1C [Compound 110, (7S)-2-(((1-(3-(4-fluorophenyl)propyl)-1H-pyrazol-4-yl)methyl)amino)-7,8-dimethyl-7,8-dihydropteridin-6(5H)-one]
< 300 nM	Cc1nc(N[C@H]2C[C@H](Oc3ccc(OC(F)F)nc3)C2)nc2c1NC(=O)[C@H](C)N2C [Compound 361, (7S)-2-((trans-3-((6-(difluoromethoxy)pyridin-3-yl)oxy)cyclobutyl)amino)-4,7,8-trimethyl-7,8-dihydropteridin-6(5H)-one]
< 300 nM	Cc1nc(NCc2cnn(C[C@H](C)c3ccccc3)c2)nc2c1NC(=O)[C@H](C)N2C [Compound 90, (7S)-4,7,8-trimethyl-2-(((1-((R)-2-phenylpropyl)-1H-pyrazol-4-yl)methyl)amino)-7,8-dihydropteridin-6(5H)-one]
300 to 1000 nM	Cc1nc(NCc2cc(C)n(Cc3ccc(F)cc3)c2C)nc2c1NC(=O)[C@H](C(C)C)N2C [Compound 508, (S)-2-(((1-(4-fluorobenzyl)-2,5-dimethyl-1H-pyrrol-3-yl)methyl)amino)-7-isopropyl-4,8-dimethyl-7,8-dihydropteridin-6(5H)-one]
1000 to 5000 nM	[2H]C([2H])(O)c1nc(NCc2cnn(Cc3ccc(C(F)(F)F)nc3)c2)nc2c1NC(=O)[C@H](C)N2C [Compound 493, (7S)-4-(hydroxymethyl-d2)-7,8-dimethyl-2-(((1-((6-(trifluoromethyl)pyridin-3-yl)methyl)-1H-pyrazol-4-yl)methyl)amino)-7,8-dihydropteridin-6(5H)-one]
≥ 5000 nM	Cc1nc(N[C@H]2CCc3c2cnn3Cc2ccc(C(F)(F)F)nc2)nc2c1NC(=O)[C@H](C)N2C [Compound 624, (7S)-4,7,8-trimethyl-2-(((S)-1-((6-(trifluoromethyl)pyridin-3-yl)methyl)-1,4,5,6-tetrahydrocyclopenta[c]pyrazol-4-yl)amino)-7,8-dihydropteridin-6(5H)-one]

same assay, conditions: Homo sapiens, COLO 205, 5 h, Colo 205 cells with stably transfected TCF/LEF luciferase reporter; five hours after addition of compound; read-out: TCF reporter Colo205

IC50	Compound
< 300 nM	[2H]C([2H])([2H])N1c2nc(NCc3cnn(Cc4ccc(C(F)(F)F)nc4)c3)nc(C)c2NC(=O)[C@@H]1C [Compound 400, (7S)-4,7-dimethyl-8-(methyl-d3)-2-(((1-((6-(trifluoromethyl)pyridin-3-yl)methyl)-1H-pyrazol-4-yl)methyl)amino)-7,8-dihydropteridin-6(5H)-one]
